Among the data in patent publication US10899738B2 (THE REGENTS OF THE UNIVERSITY OF MICHIGAN, priority 2016, dated 2021) are IC50 values, retold here.

In general, IC50 refers to the concentration needed to halve the response being measured.

The target in the test is menin protein (Homo sapiens (Human), UniProt O00255). Briefly: biochemical. The test is classed as binding. Conditions: FP competitive binding; menin protein 4 nM, FAM-MM2 probe 2 nM; read-out: Menin Binding Affinity IC50. The gist of the method: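 Competitive fluorescence polarization assay using FAM-labelled MLL1 peptide probe FAM-MM2 (2 nM final) preincubated with menin (4 nM final) in PBS with 0.02% bovine γ-globulin, 4% DMSO and 0.01% Triton X-100. Compounds were added and incubated 30 min at room temperature. IC50 came from nonlinear regression of competition curves, with Ki also derived.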
menin protein, sequence (O00255 whole entry): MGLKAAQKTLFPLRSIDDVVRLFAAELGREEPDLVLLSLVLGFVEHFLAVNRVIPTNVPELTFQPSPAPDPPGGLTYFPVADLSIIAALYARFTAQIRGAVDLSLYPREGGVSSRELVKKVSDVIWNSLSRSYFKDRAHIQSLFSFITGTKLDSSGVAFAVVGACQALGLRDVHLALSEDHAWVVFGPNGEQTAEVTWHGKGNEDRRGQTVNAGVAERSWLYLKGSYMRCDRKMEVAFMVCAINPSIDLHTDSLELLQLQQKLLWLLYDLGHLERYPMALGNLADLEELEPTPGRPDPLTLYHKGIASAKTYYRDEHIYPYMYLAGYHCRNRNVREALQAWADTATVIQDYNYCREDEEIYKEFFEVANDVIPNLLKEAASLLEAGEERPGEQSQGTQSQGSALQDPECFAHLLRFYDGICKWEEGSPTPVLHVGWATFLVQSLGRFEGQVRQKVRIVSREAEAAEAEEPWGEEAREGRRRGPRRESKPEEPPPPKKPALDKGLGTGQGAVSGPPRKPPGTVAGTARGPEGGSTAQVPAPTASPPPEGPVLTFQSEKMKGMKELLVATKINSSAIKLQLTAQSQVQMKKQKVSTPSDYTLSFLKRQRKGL
For the molecule `CCNC(=O)O[C@@H]1CCC[C@H]1C(C#N)(c1ccccc1)C1CCN(CC2CN(c3ccc(S(=O)(=O)c4ccncc4)cc3)C2)CC1` (mixture of isomers) [compound 214, rac-(1R,2S)-2-(cyano(phenyl)(1-((1-(4-(pyridin-4-ylsulfonyl)phenyl)azetidin-3-yl)methyl)piperidin-4-yl)methyl)cyclopentyl ethylcarbamate], the half-maximal inhibitory concentration (IC50) worked out at 3.4 µM. Consider `O=S(=O)(c1ccc(N2CC(CN3CCC(C4(C5CCCC5)COCc5ccccc54)CC3)C2)cc1)C1CC1` (stereo not shown) [compound 38, 4-(4-cyclopentylisochroman-4-yl)-1-((1-(4-(cyclopropylsulfonyl)phenyl)azetidin-3-yl)methyl)piperidine], for which the IC50 was found to be 0.304 µM. For the molecule `CNC(=O)O[C@@H]1CCC[C@H]1C(C#N)(c1ccccc1)C1CCN(CC2CN(c3ccc(S(=O)(=O)c4cnn(C)c4)cc3)C2)CC1` (mixture of isomers) [compound 241, rac-(1R,2S)-2-(cyano(1-((1-(4-((1-methyl-1H-pyrazol-4-yl)sulfonyl)phenyl)azetidin-3-yl)methyl)piperidin-4-yl)(phenyl)methyl)cyclopentyl methylcarbamate], the IC50 amounted to 0.849 µM. Consider `CN([C@@H]1CCC[C@H]1C(C#N)(c1ccccc1)C1CCN(CC2CN(c3ccc(S(=O)(=O)C4CC4)cc3)C2)CC1)S(C)(=O)=O` (mixture of isomers) [compound 274, rac-N-((1R,2S)-2-(cyano(1-((1-(4-(cyclopropylsulfonyl)phenyl)azetidin-3-yl)methyl)piperidin-4-yl)(phenyl)methyl)cyclopentyl)-N-methanesulfonamide], for which the IC50 amounted to 19.2 µM. For the molecule `CNC(=O)O[C@@H]1CCC[C@H]1C(Cn1ccnc1)(c1ccccc1)C1CCN(CC2CN(c3ccc(C#N)cc3)C2)CC1` (mixture of isomers) [compound 365, rac-(1R,2S)-2-(1-(1-((1-(4-cyanophenyl)azetidin-3-yl)methyl)piperidin-4-yl)-2-(1H-imidazol-1-yl)-1-phenylethyl)cyclopentyl methylcarbamate], the 50% inhibitory concentration (IC50) was found to be 0.281 µM. Consider `CC(=O)O[C@@H]1CCC[C@H]1C(C#N)(c1ccccc1)C1CCN(CC2CN(c3ccc(C(=O)O)cc3)C2)CC1` (mixture of isomers) [compound 389, rac-4-(3-((4-(((1S,2R)-2-acetoxycyclopentyl)(cyano) (phenyl)methyl)piperidin-1-yl)methyl)azetidin-1-yl)benzoic acid], for which the half-inhibitory concentration (IC50) is 6.5 µM. The result for `N#Cc1ccc(OCCCN2CCC(C(C#N)(Cc3ccncc3)c3ccccc3)CC2)cc1` (stereo not shown) [compound 344, 4-(3-(4-(1-cyano-1-phenyl-2-(pyridin-4-yl)ethyl)piperidin-1-yl)propoxy)benzonitrile] reads 180 µM. On to `COCC[C@H]1CCC[C@@H]1C(C#N)(c1ccccc1)C1CCN(CC2CN(c3ccc(S(=O)(=O)c4ccnc(C)c4)cc3)C2)CC1` (mixture of isomers) [compound 336, rac-2-((1S,2R)-2-(2-methoxyethyl)cyclopentyl)-2-(1-((1-(4-((2-methylpyridin-4-yl)sulfonyl)phenyl)azetidin-3-yl)methyl)piperidin-4-yl)-2-phenylacetonitrile], for which the IC50 turned out to be 29.4 µM. The result for `CS(=O)(=O)C[C@@H]1CCC[C@H]1C(C#N)(c1ccccc1)C1CCN(CC2CN(c3ccc(S(=O)(=O)c4ccncc4)cc3)C2)CC1` (mixture of isomers) [compound 256, rac-2-((1R,2R)-2-((methylsulfonyl)methyl)cyclopentyl)-2-phenyl-2-(1-((1-(4-(pyridin-4-ylsulfonyl)phenyl)azetidin-3-yl)methyl)piperidin-4-yl)acetonitrile] reads 3.3 µM; that for `CC(=O)O[C@@H]1CCC[C@H]1C(C#N)(c1ccccc1)C1CCN(CC2CN(c3ccc(S(=O)(=O)c4ccncc4)cc3)C2)CC1` (mixture of isomers) [compound 186, rac-(1R,2S)-2-(cyano(phenyl)(1-((1-(4-(pyridin-4-ylsulfonyl)phenyl)azetidin-3-yl)methyl)piperidin-4-yl)methyl)cyclopentyl acetate], 1 µM.

Consider `CC(=O)O[C@@H]1CCC[C@H]1C(C#N)(c1ccccc1F)C1CCN(CC2CN(c3ccc(S(=O)(=O)C4CC4)cc3)C2)CC1` (mixture of isomers) [compound 311, rac-(1R,2S)-2-(cyano(1-((1-(4-(cyclopropylsulfonyl)phenyl)azetidin-3-yl)methyl)piperidin-4-yl)(2-fluorophenyl)methyl) cyclopentyl acetate], for which the half-inhibitory concentration (IC50) turned out to be 5.7 µM. As to `c1ccc2c(c1)CCNC2(CC1CCNCC1)C1CCCC1` (stereo not shown) [compound 107, 1-cyclopentyl-1-(piperidin-4-ylmethyl)-1,2,3,4-tetrahydroisoquinoline], the IC50 stood at 299 µM. As to `CCCCC(=O)c1cc2cc(CCN3CCC(C4(C5CCCC5)NCCc5ccccc54)CC3)ccc2n1C` (stereo not shown) [compound 65, 1-(5-(2-(4-(1-cyclopentyl-1,2,3,4-tetrahydroisoquinolin-1-yl)piperidin-1-yl)ethyl)-1-methyl-1H-indol-2-yl)pentan-1-one], the IC50 was found to be 2.8 µM. The result for `CC(C)CCC1(C2CCN(CCCOc3ccc(C#N)cc3)CC2)NCCc2ccccc21` (stereo not shown) [compound 250, 4-(3-(4-(1-isopentyl-1,2,3,4-tetrahydroisoquinolin-1-yl)piperidin-1-yl)propoxy)benzonitrile] reads 4.7 µM; that for `O=C(Cc1ccc(S(=O)(=O)C2CC2)cc1)N1CCc2cc(C3(C4CCCC4)NCCc4ccccc43)ccc2C1` (stereo not shown) [compound 100, 1-(1-cyclopentyl-1,2,3,3′,4,4′-hexahydro-[1,6′-biisoquinolin]-2′-(1′H)-yl)-2-(4-(cyclopropylsulfonyl)phenyl) ethan-1-one], 4.7 µM; that for `FCC1(CF)CC(N2CCC(C3(C4CCCC4)NCCc4ccccc43)CC2)C1` (stereo not shown) [compound 56, 1-(1-(3,3-bis(fluoromethyl)cyclobutyl)piperidin-4-yl)-1-cyclopentyl-1,2,3,4-tetrahydroisoquinoline], 18.2 µM. Take `CC(=O)N[C@@H]1CCC[C@H]1C1(C2CCN(CC3CN(c4ccc(S(=O)(=O)c5cnn(C)c5)cc4)C3)CC2)CNCc2ccccc21` (mixture of isomers) [compound 287, rac-N-((1R,2S)-2-(4-(1-((1-(4-((1-methyl-1H-pyrazol-4-yl)sulfonyl)phenyl)azetidin-3-yl)methyl)piperidin-4-yl)-1,2,3,4-tetrahydroisoquinolin-4-yl)cyclopentyl)acetamide]: the concentration for half-maximal inhibition (IC50) was 0.247 µM. The result for `CS(=O)(=O)c1ccc(N2CC(CN3CCC(C(C#N)(c4ccccc4)[C@H]4CCC[C@H]4S(C)(=O)=O)CC3)C2)cc1` (mixture of isomers) [compound 182, rac-2-((1R,2R)-2-(methylsulfonyl)cyclopentyl)-2-(1-((1-(4-(methylsulfonyl)phenyl)azetidin-3-yl)methyl)piperidin-4-yl)-2-phenylacetonitrile] reads 23.7 µM; that for `CNC(=O)O[C@@H]1CCC[C@H]1C(Cn1ccnc1)(c1ccccc1)C1CCN(CC2CN(c3ccc(S(=O)(=O)c4ccccc4)cc3)C2)CC1` (mixture of isomers) [compound 237, rac-(1R,2S)-2-(2-(1H-imidazol-1-yl)-1-phenyl-1-(1-((1-(4-(phenylsulfonyl)phenyl)azetidin-3-yl)methyl)piperidin-4-yl)ethyl)cyclopentyl methylcarbamate], 0.042 µM.
